What all share (experiment): Bitter taste receptor screening, calcium mobilization in HEK293T cells
What all share (type): cell-based

Assay [1] has as its target T1, TAS2R14 (Homo sapiens, UniProt Q9NYV8).
T1 construct: first 45 amino acids of rat somatostatin type 3 receptor (SSTR3) (N); expressed in transfected cells; host or cells: HEK293T stably expressing chimeric Gα16gust44, transiently co-transfected with the pcDNA4-TAS2R vector and pCMV-GCaMP5G
T1 sequence (Q9NYV8 1-317): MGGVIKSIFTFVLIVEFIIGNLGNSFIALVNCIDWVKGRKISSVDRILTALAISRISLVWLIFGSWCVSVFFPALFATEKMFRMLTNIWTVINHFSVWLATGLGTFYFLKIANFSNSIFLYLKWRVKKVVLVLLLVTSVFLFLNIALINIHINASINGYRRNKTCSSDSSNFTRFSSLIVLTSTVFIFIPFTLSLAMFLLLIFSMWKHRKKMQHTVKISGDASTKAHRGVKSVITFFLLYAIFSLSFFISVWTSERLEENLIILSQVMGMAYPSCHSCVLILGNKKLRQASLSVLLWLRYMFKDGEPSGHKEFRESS
The note with it: calcium response F/F0. Here is the method: (§1) Bitter taste receptor cDNA were cloned into the pcDNA4 mammalian expression vector (Invitrogen) using full coding receptor sequences reported on UniProt database. The synthetic constructs were codon optimized (Genewiz) and combine the first 45 amino acids of rat somatostatin type 3 receptor at the amino terminus to improve plasma membrane targeting of the receptors in the heterologous system. The FLAG epitope was added to the carboxy terminus without interfering with receptor functionality and can be used for immunocytochemistry. Calcium-mobilization assays were performed using human embryonic kidney cells (HEK293T) stably transfected with chimeric Gα16gust44 protein[78]. Cells were seeded in black, poly-D-lysine coated 96-well plates at a density of 35,000 cells/100 µL in high glucose DMEM supplemented with 10% dialysed fetal bovine serum and 1% penicillin/streptomycin. Twenty-four hours later, the cells were transiently co-transfected using Lipofectamine 2000 (Life Technologies) with one of the TAS2R synthetic optimized vectors or empty expression plasmid, as a negative control, and the pCMV-GCaMP5G construct (Addgene #31788) coding for a genetically encoded calcium indicator[79],[80]. Twenty-four hours after transfection, cells were washed twice with C1 buffer (130 mM NaCl, 5 mM KCl, 10 mM HEPES, 2 mM CaCl2, 5 mM sodium pyruvate, pH7.4). 3-oxo-C12:2-HSL was solved in DMSO and further diluted in C1 buffer. Next, the cells were placed in a fluorometric imaging plate reader (Flexstation® 3, Molecular Devices) and stimulated with automatic injection of increasing concentrations of AHLs. Calcium responses leading to increase in fluorescence were monitored at 510 nm after excitation at 488 nm. Experiments were performed in duplicates and repeated at least four times. The recorded calcium levels of each wells receiving the same stimulus were averaged, response of mock-transfected cells were subtracted from receptor-transfected cells and net signals were normalized to background fluorescence (F/F0, F0 fluorescence light before stimulus application). The resulting dose–response curves of the averaged fluorescent signal amplitudes against the logarithm of the agonist concentration were fitted using Sigma Plot software. For data analysis, the four-parameter logistic equation [f(x) = min + (max − min)/(1 + (x/EC50)nH)] was used to calculate the half-maximal effective concentrations (EC50 values).

For assay [2], the target named is T2, TAS2R38 (Homo sapiens, UniProt P59533).
T2 construct: first 45 amino acids of rat somatostatin type 3 receptor (SSTR3) (N); expressed in transfected cells; host or cells: HEK293T stably expressing chimeric Gα16gust44, transiently co-transfected with the pcDNA4-TAS2R vector and pCMV-GCaMP5G
T2 sequence (P59533 1-333): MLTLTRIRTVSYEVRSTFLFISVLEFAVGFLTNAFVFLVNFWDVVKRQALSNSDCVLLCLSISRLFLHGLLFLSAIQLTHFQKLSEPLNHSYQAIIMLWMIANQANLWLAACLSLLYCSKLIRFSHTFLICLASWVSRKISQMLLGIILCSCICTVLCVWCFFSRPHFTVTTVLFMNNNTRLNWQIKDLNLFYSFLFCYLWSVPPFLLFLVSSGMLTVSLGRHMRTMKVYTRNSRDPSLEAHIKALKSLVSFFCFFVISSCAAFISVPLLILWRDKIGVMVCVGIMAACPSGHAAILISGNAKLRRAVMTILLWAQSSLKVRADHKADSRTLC
As for the experimental part: as §1

Assay [3] concerns the target T3, TAS2R13 (Homo sapiens, UniProt Q9NYV9).
T3 construct: first 45 amino acids of rat somatostatin type 3 receptor (SSTR3) (N); expressed in transfected cells; host or cells: HEK293T stably expressing chimeric Gα16gust44, transiently co-transfected with the pcDNA4-TAS2R vector and pCMV-GCaMP5G
T3 sequence (Q9NYV9 1-303): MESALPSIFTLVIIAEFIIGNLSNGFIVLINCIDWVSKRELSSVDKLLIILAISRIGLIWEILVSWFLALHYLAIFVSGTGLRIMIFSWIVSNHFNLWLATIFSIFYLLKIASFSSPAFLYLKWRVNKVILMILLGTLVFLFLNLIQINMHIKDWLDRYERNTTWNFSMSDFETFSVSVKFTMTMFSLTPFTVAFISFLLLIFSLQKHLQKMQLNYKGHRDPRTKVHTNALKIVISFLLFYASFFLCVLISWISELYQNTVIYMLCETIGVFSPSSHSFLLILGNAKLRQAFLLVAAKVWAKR
As for the experimental part: as §1

Assay [4] addresses T4, TAS2R8 (Homo sapiens, UniProt Q9NYW2).
T4 construct: first 45 amino acids of rat somatostatin type 3 receptor (SSTR3) (N); expressed in transfected cells; host or cells: HEK293T stably expressing chimeric Gα16gust44, transiently co-transfected with the pcDNA4-TAS2R vector and pCMV-GCaMP5G
T4 sequence (Q9NYW2 1-309): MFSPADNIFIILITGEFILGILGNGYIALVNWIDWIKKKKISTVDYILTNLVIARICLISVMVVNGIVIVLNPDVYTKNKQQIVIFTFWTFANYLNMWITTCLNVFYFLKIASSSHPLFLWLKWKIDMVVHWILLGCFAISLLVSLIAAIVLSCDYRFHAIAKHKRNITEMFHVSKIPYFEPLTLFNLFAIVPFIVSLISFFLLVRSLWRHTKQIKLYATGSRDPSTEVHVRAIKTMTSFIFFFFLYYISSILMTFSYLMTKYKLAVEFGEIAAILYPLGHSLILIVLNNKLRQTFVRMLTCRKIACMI
As for the experimental part: as §1

Assay [5] concerns the target T5, TAS2R10 (Homo sapiens, UniProt Q9NYW0).
T5 construct: first 45 amino acids of rat somatostatin type 3 receptor (SSTR3) (N); expressed in transfected cells; host or cells: HEK293T stably expressing chimeric Gα16gust44, transiently co-transfected with the pcDNA4-TAS2R vector and pCMV-GCaMP5G
T5 sequence (Q9NYW0 1-307): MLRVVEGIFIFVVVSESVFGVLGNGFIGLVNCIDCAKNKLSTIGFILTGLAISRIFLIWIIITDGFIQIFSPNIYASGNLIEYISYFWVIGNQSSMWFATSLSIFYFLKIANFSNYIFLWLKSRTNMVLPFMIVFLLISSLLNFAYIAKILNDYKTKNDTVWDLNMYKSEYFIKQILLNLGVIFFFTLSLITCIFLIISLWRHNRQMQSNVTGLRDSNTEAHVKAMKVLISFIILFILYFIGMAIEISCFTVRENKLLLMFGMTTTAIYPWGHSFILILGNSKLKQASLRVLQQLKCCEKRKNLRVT
Here is the method: as §1

The source of these data is paper PMC9177545, “3-oxo-C12:2-HSL, quorum sensing molecule from human intestinal microbiota, inhibits pro-inflammatory pathways in immune cells via bitter taste receptors” (Scientific Reports, 2022).

As to 3-oxo-C12:2-HSL, the maximum amplitude entry is given as “around 0.45” in assay [1]; 0.05 ± 0.01 in assay [2] (calcium response F/F0); 0.59 ± 0.03 in assay [3] (calcium response F/F0); “around 0.45” in assay [4] (calcium response F/F0); 0.13 ± 0.03 in assay [5] (calcium response F/F0). Besides, the EC50 in assay [2] (calcium response, 0–1000 µM) is 476 ± 125 µM; in assay [3] (calcium response, 0–1000 µM) it was 884 ± 41 µM; in assay [4] (calcium response, 0–1000 µM) it was 333 ± 27 µM; in assay [5] (calcium response, 0–1000 µM), 438 ± 120 µM.
